Test results taken from patent US12102706B2, “Peptide composition and respective uses” (Universidade do Minho, priority 2013, dated 2024).
“And” between values parts separate entries of the source, which are not always exact repeats. Equal entries are not always repeated.

Assays:
[1] = Mechanical tests (Young modulus, maximum load, stretching) of relaxed (reduced) human hair after peptide treatment (Example 3)
Description: The formulation was tested in different hair types: • virgin hair washed, with the cuticle intact and absence of chemical damages; • hair after reduction treatment, at 37° C. in phosphate buffer at pH=8, with 3M GndHCl and 0.05M DTT for 2 hours.
For the treatment with the peptide SEQ ID NO: 412, concentrations of 0.01% (w/w) were used.

keratin = test: Binding of Alexa Fluor 647-marked keratin to peptides attached to glass, microarray scanner intensity (Example 4); design: species or system human; settings: peptide 15 fmol/mm2 on glass; keratin 1 μg/mL, 2 hours at 37° C.; three replicas
Description: In order to assess the interactions between the keratin and some peptides, a keratin solution was prepared. This procedure was performed by immersing African hair, acquired from the International Hair Importers and Products, Inc. (New York), in a solution containing 8 M urea, 0.2 M sodium dodecyl sulfate and 0.5 M sodium bisulfate. The mixture was heated to 50° C. for 24 h in a shaker bath. The solution was dialyzed for several days against double-distilled water. The keratin solution was then concentrated using AMICON with a 3 kDa cut-off.
The reaction was incubated for 1 h30 min at room temperature and in the dark.
The keratin was then diluted to 1 μg/mL in blocking buffer (3% BSA in tris-buffered saline (TBS) with 0.05% Tween 20).
After incubation, the glasses were rinsed in successive washing solutions: TBS+0.1% Tween 20 and blocking buffer with 3% BSA in TBS+0.1% Tween 20, for 3 minutes in each solution.
The imaging of the glasses was performed in Agilent G2565CA Microarray Scanner System. Three replicas of the each peptide incubation were performed and analyzed.

[2] = Mechanical test (Young modulus) of bleached human hair treated with serum or mask, with and without peptide (Example 1); settings: formulations containing the peptide vs without peptide
Description: The tests were performed with in human hair after 8 treatments of bleaching, at 50° C. in 0.1 M Na2CO3/NaHCO3 buffer, at pH=9, 10% H2O2, for 1 hour.
Each of the formulations was tested with and without the peptide sequence ID NO:5, which contains in the sequence 15% of cysteine.
The hair mask was applied to the hair after 8 bleaching treatments, being left to act for 15 minutes, mimicking the procedure indicated in commercial masks. Posteriorly, the hair was washed. The serum was applied to the hair after 8 bleaching treatments, being left to act for 1 hour at 37° C. Posteriorly, the hair was not washed, as in typical commercial procedures the serum should be applied in dry hair. The hair was also tested after 5 applications.
After the treatment, mechanical tests were performed, using a cell with 2.5 N maximum load and a deformation rate of 1.5 mm/min. Each hair was individually mounted in the tensile jig by means of a paper template with a fixed gauge length of 20 mm.

[3] = Mechanical resistance test (Young modulus) of bleached human hair after direct application of peptide (Example 2); settings: peptide treatment after bleaching
Description: The hair was supplied from International Hair Importers and Products, Inc. (New York). Hair fibers were pre-treated by bleaching. The formulation was tested in different hair types: • virgin hair washed, with the cuticle intact and absence of chemical damages; • hair after 8 bleaching treatments, at 50° C. in 0.1 M Na2CO3/NaHCO3 buffer, at pH=9, 10% H2O2, for 1 hour.
The incorporation of the peptides was performed by direct application in the hair surface. The mechanical resistance tests were performed after the treatment of the hair with the peptide.
The measurements of mechanical resistance were performed using a cell with 2.5 N maximum load and a deformation rate of 1.5 mm/min. Each hair was individually mounted in the tensile jig by means of a paper template with a fixed gauge length of 20 mm.

Intensity level (average ± standard deviation), normalized (keratin)	Sequence	other results
–	CGPSPPCITT (listed as Homo sapiens) [SEQ.ID NO:412]	hair stretching (average) ([1]; relaxed hair after peptide treatment): 72%; maximum load test, maximum of resistance ([1]; relaxed hair fiber after peptide treatment): 126 MPa; Young modulus (average) ([1]; relaxed hair fiber after peptide treatment at 0.01%): 4190 MPa
1 and 1.000 ± 0.000	SCCAPVYCCK (listed as Homo sapiens) [SEQ.ID NO:951]	–
–	GVCGPSPPCI (listed as Homo sapiens) [SEQ.ID NO:5]	mechanical resistance of the damaged hair [2]: increase in mechanical resistance
–	GGVCGPSPPC (listed as Homo sapiens) [SEQ.ID NO:409]	Young modulus [3]: 5649±1022 MPa
1 and 1.000 ± 0.000	CLPCLPAASC (listed as Homo sapiens) [SEQ.ID NO:75]	–
1 and 1.000 ± 0.000	CEPAICEPSC (listed as Homo sapiens) [SEQ.ID NO:432]	–
0.990±0.014	ASCVSLLCRP (listed as Homo sapiens) [SEQ.ID NO:179]	–

Sequence	Intensity level (average ± standard deviation), normalized (keratin)	other results
CISSSCCPSCC (listed as Homo sapiens) [SEQ.ID NO:1108]	1 and 1.000 ± 0.000	–
CQCSCCKPYCS (listed as Homo sapiens) [SEQ.ID NO:1131]	1 and 1.000 ± 0.000	–
